Assay results from PubChem BioAssay (NCI).
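Results reflect a 48-hour exposure of cells in 96-well plates to compound at five concentrations. At the GI50, growth is halved. The concentration for full growth arrest is given as TGI.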

What was measured:
Experiment in all cases: inhibition of tumour cell growth, NCI panel, 48 h
[1] = system: HOP-92 NSCLC
[2] = system: SN12C renal
[3] = system: HCT-15 colon
[4] = system: M14 melanoma
[5] = system: CAKI-1 renal
[6] = system: T-47D breast
[7] = system: UACC-257 melanoma
[8] = system: BT-549 breast
[9] = system: SK-MEL-28 melanoma
[10] = system: IGROV1 ovarian
[11] = system: TK-10 renal
[12] = system: MDA-MB-231 breast
[13] = system: OVCAR-5 ovarian
[14] = system: U251 CNS
[15] = system: NCI/ADR-RES ovarian
[16] = system: 786-0 renal
[17] = system: MALME-3M melanoma
[18] = system: OVCAR-3 ovarian
[19] = system: A498 renal
[20] = system: OVCAR-4 ovarian
[21] = system: HCT-116 colon
[22] = system: HOP-62 NSCLC
[23] = system: K-562 leukemia
[24] = system: KM12 colon
[25] = system: NCI-H226 lung
[26] = system: NCI-H460 lung
[27] = system: MDA-MB-435
[28] = system: DU-145 prostate
[29] = system: SF-268 CNS
[30] = system: SNB-19 CNS
[31] = system: UACC-62 melanoma
[32] = system: SK-MEL-5 melanoma
[33] = system: HT29 colon
[34] = system: PC-3 prostate
[35] = system: UO-31 renal
[36] = system: SR leukemia
[37] = system: RXF 393 renal
[38] = system: HS 578T breast
[39] = system: SK-OV-3 ovarian
[40] = system: SF-539 CNS
[41] = system: HL-60(TB) leukemia
[42] = system: COLO 205 colon
[43] = system: HCC-2998 colon
[44] = system: MCF7 breast
[45] = system: SW-620 colon
[46] = system: SF-295 CNS
[47] = system: EKVX NSCLC
[48] = system: SNB-75 CNS
[49] = system: ACHN renal
[50] = system: NCI-H23 lung

CCCCCCCC/C=C/CCCCCCCC1=NC(C)(C)CN1C(C)C
GI50 [1]: 819 nM | TGI [1]: 2600 nM | GI50 [2]: 1460 nM | TGI [2]: 2780 nM | GI50 [3]: 1510 nM | TGI [3]: 2900 nM | GI50 [4]: 1530 nM | TGI [4]: 2860 nM | GI50 [5]: 1160 nM | TGI [5]: 2380 nM | GI50 [6]: 1620 nM | TGI [6]: 3270 nM | GI50 [7]: 1860 nM | TGI [7]: 3400 nM | GI50 [8]: 1580 nM | TGI [8]: 3740 nM | GI50 [9]: 1530 nM | TGI [9]: 2860 nM | GI50 [10]: 868 nM | TGI [10]: 2140 nM | GI50 [11]: 1450 nM | TGI [11]: 2790 nM | GI50 [12]: 1590 nM | TGI [12]: 2970 nM | GI50 [13]: 1540 nM | TGI [13]: 2880 nM | GI50 [14]: 1620 nM | TGI [14]: 3000 nM | GI50 [15]: 1540 nM | TGI [15]: 3160 nM | GI50 [16]: 1580 nM | TGI [16]: 2930 nM | GI50 [17]: 1630 nM | TGI [17]: 3270 nM | GI50 [18]: 1270 nM | TGI [18]: 2530 nM | GI50 [19]: 2040 nM | TGI [19]: 5210 nM | GI50 [20]: 1630 nM | TGI [20]: 2980 nM | GI50 [21]: 1400 nM | TGI [21]: 2700 nM | GI50 [22]: 1580 nM | TGI [22]: 2920 nM | GI50 [23]: 1110 nM | TGI [23]: 2390 nM | GI50 [24]: 1620 nM | TGI [24]: 2970 nM | GI50 [25]: 1750 nM | TGI [25]: 4520 nM | GI50 [26]: 1700 nM | TGI [26]: 3070 nM | GI50 [27]: 1600 nM | TGI [27]: 3010 nM | GI50 [28]: 1630 nM | TGI [28]: 2990 nM | GI50 [29]: 1700 nM | TGI [29]: 3070 nM | GI50 [30]: 2170 nM | TGI [30]: 7490 nM | GI50 [31]: 1610 nM | TGI [31]: 3020 nM | GI50 [32]: 1610 nM | TGI [32]: 2960 nM | GI50 [33]: 576 nM | TGI [33]: 1860 nM | GI50 [34]: 1310 nM | TGI [34]: 2830 nM | GI50 [35]: 1430 nM | TGI [35]: 2810 nM | GI50 [36]: 1020 nM | TGI [36]: 2420 nM | GI50 [37]: 1580 nM | TGI [37]: 3040 nM | GI50 [38]: 1550 nM | TGI [38]: 3560 nM | GI50 [39]: 1320 nM | TGI [39]: 2590 nM | GI50 [40]: 1530 nM | TGI [40]: 2870 nM | GI50 [41]: 1620 nM | TGI [41]: 3250 nM | GI50 [42]: 516 nM | TGI [42]: 2090 nM | GI50 [43]: 1420 nM | TGI [43]: 2720 nM | GI50 [44]: 1520 nM | TGI [44]: 2950 nM | GI50 [45]: 1590 nM | TGI [45]: 2940 nM | GI50 [46]: 1640 nM | TGI [46]: 3070 nM | GI50 [47]: 1560 nM | TGI [47]: 3270 nM | GI50 [48]: 1560 nM | TGI [48]: 2900 nM | GI50 [49]: 1650 nM | TGI [49]: 3010 nM | GI50 [50]: 1510 nM | TGI [50]: 2830 nM
